In BindingDB's records for patent US12180196 (Hoffmann-La Roche, 2024):

Target: Cannabinoid receptor 2 (Homo sapiens, UniProt P34972)
Experiment: Radioligand Binding Assay
Method: The affinity of the compounds of the invention for cannabinoid CB1 receptors was determined using recommended amounts of membrane preparations (PerkinElmer) of human embryonic kidney (HEK) cells expressing the human CNR1 or CNR2 receptors in conjunction with 1.5 or 2.6 nM [3H]-CP-55,940 (Perkin Elmer) as radioligand, respectively. Binding was performed in binding buffer (50 mM Tris, 5 mM MgCl2, 2.5 mM EDTA, and 0.5% (wt/vol) fatty acid free BSA, pH 7.4 for CB1 receptor and 50 mM Tris, 5 mM MgCl2, 2.5 mM EGTA, and 0.1% (wt/vol) fatty acid free BSA, pH 7.4 for CB2 receptor) in a total volume of 0.2 ml for 1 h at 30° C. shaking. The reaction was terminated by rapid filtration through microfiltration plates coated with 0.5% polyethylenimine (UniFilter GF/B filter plate; Packard). Bound radioactivity was analyzed for Ki using nonlinear regression analysis (Activity Base, ID Business Solution, Limited), with the Kd values for [3H]CP55,940 determined from saturation experiments. The compounds of formula (I) show an excellent affinity for the CB2 receptor.

Sequence of Cannabinoid receptor 2 (P34972 whole entry): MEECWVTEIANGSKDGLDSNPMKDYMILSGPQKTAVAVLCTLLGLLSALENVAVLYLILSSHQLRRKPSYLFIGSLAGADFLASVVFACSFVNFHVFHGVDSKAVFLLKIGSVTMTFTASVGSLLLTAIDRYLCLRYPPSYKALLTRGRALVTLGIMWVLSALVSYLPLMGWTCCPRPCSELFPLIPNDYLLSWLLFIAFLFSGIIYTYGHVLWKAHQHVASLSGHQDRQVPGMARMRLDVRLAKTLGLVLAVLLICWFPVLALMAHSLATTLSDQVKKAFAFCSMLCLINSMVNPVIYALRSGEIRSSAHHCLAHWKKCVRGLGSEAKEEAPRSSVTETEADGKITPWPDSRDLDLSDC

Ki: 14 nM
SMILES: CCOC(=O)C(CC)(CC)NC(=O)c1ccc(N2CC(OCF)C2)c(OCC2CC2)n1 [US12180196, Example 3]
